Results: US10150761B2, “Substituted pyridine-piperazinyl analogues as RSV antiviral compounds” (Janssen Sciences Ireland UC, priority 2013, dated 2018)
Counter-ions that a name gives are not always drawn.

Key:
[1] = Cytotoxicity in HeLa cells (ATP content, ATPlite kit); type: cell-based; conditions: human, three days incubation, read-out: TOX HELA pCC50 (converted)
Description: (§1) Glycosaminoglycan sulfation requirements for respiratory syncytial virus infection; Journal of virology (2000), 74(22), 10508-13) and was in-licensed from the NIH (Bethesda, Md., USA). Finally, 20 μL of a HeLa cell suspension (3,000 cells/well) were plated. Medium, virus- and mock-infected controls were included in each test. The wells contain 0.05% DMSO per volume. Cells were incubated at 37° C. in a 5% CO2 atmosphere. Three days post-virus exposure, viral replication was quantified by measuring GFP expression in the cells by an in house developed MSM laser microscope (Tibotec. Beerse, Belgium). The EC50 was defined as the 50% inhibitory concentration for GFP expression. In parallel, compounds were incubated for three days in a set of white 384-well microtiter plates (Corning) and the cytotoxicity of compounds in HeLa cells was determined by measuring the ATP content of the cells using the ATPlite kit (PerkinElmer, Zaventem, Belgium) according to the manufacturer's instructions. The CC50 was defined as the 50% concentration for cytotoxicity.

rgRSV224 virus = experiment: Antiviral activity: rgRSV224 (GFP) replication in HeLa cells; type: cell-based, respiratory syncytial virus (RSV); conditions: human respiratory syncytial virus, HeLa, 72 h, read-out: RSV HELA pEC50, rgRSV224 virus (MOI=1), HeLa cells, GFP expression, three days post-virus exposure (converted)
Description: Black 384-well clear-bottom microtiter plates (Corning, Amsterdam, The Netherlands) were filled via acoustic drop ejection using the echo liquid handler (Labcyte, Sunnyvale, Calif.), 200 nL of compound stock solutions (100% DMSO) were transferred to the assay plates, 9 serial 4-fold dilutions of compound were made, creating per quadrant the same compound concentration. The assay was initiated by adding 10 μL of culture medium to each well (RPMI medium without phenol red, 10% FBS-heat inactivated, 0.04% gentamycin (50 mg/mL). All addition steps are done by using a multidrop dispenser (Thermo Scientific, Erembodegem, Belgium). Next, rgRSV224 virus (MOI=1) diluted in culture medium was added to the plates, rgRSV224 virus is an engineered virus that includes an additional GFP gene (Hallak L K, Spillmann D. Collins P L, Peeples M E.
as §1

Compound | CC50 at 3 days [1] [µM] | EC50 (rgRSV224 virus) [µM] | melting point [°C]
Clc1ccc(-c2ncccc2N2CCN(c3ccncc3)CC2)c(Cl)c1 [Compound 14] | 40.7 | 0.186 | –
c1cc(N2CCN(c3nccnc3-c3ccc4occc4c3)CC2)ccn1 [Compound 7] | > 97.7 | 0.871 | –
OCCCn1ccc2cc(-c3ncccc3N3CCN(c4ccncc4)CC3)ccc21 [Compound 46] | 52.5 | 0.148 | 110
CC(=O)c1cccc(-c2nccnc2N2CCN(c3ccccc3)CC2)c1 [Compound 1] | 2.29 | 0.955 | 172.56
c1cnc(-c2ccc(C3CCCCC3)cc2)c(N2CCN(c3ccncc3)CC2)c1 [Compound 61] | 3.47 | 0.832 | –
CN(C)c1ccc(-c2ncccc2N2CCN(c3ccncc3)CC2)cc1 [Compound 34] | 74.1 | 0.295 | –
c1cnc(-c2coc3ccccc23)c(N2CCN(c3ccncc3)CC2)c1 [Compound 38] | 44.7 | 0.132 | 210
Cc1ccc(-c2ccc(-c3ncccc3N3CCN(c4ccncc4)CC3)cc2)o1 [Compound 65] | 11 | 0.191 | 230
c1cnc(-c2ccc3ncsc3c2)c(N2CCN(c3ccncc3)CC2)c1 [Compound 45] | > 100 | 0.155 | 196
c1ccc(Oc2nccnc2N2CCN(c3ccncc3)CC2)cc1 [Compound 54] | 87.1 | 10.7 | 130
COc1cc(N2CCN(c3cccnc3-c3ccccc3)CC2)ccn1 [Compound 29] | 0.257 | 0.123 | –
c1cnc(-c2ccc3c(c2)OCCO3)c(N2CCN(c3ccncc3)CC2)c1 [Compound 22] | 0.398 | 0.537 | 88
c1cnc(-c2ccc3ccccc3c2)c(N2CCN(c3ccncc3)CC2)c1 [Compound 10] | 39.8 | 0.0794 | 162.05
Cn1ccc2cc(C(F)(F)F)c(-c3ncccc3N3CCN(c4ccncc4)CC3)cc21 [Compound 49] | 75.9 | 0.0676 | 120
c1coc(-c2ccc(-c3ncccc3N3CCN(c4ccncc4)CC3)cc2)c1 [Compound 56] | 19.5 | 0.0955 | 224.32
c1cnc(-c2ccc3occc3c2)c(N2CCN(c3ccncc3)CC2)c1 [Compound 27] | 74.1 | 0.135 | 192
N#CCCn1ccc2ccc(-c3ncccc3N3CCN(c4ccncc4)CC3)cc21 [Compound 48] | > 100 | 0.166 | –
CS(=O)(=O)Nc1ccc(-c2ncccc2N2CCN(c3ccncc3)CC2)cc1 [Compound 42] | > 100 | 0.501 | 248
CC(C)(O)c1ncccc1N1CCN(c2ccncc2)CC1 [Compound 70] | > 100 | 19.1 | 163
c1cnc(-c2ccc3c(c2)OCO3)c(N2CCN(c3ccncc3)CC2)c1 [Compound 9] | > 100 | 0.692 | 187.8
c1cnc(-c2ccc3c(c2)CCO3)c(N2CCN(c3ccncc3)CC2)c1 [Compound 30] | 1.7 | 0.603 | 200
c1ccc(-c2ccc(-c3ncccc3N3CCN(c4ccncc4)CC3)cc2)cc1 [Compound 59] | 10.7 | 0.525 | 98
Fc1cccc(-c2nccnc2N2CCN(c3ccccc3)CC2)c1 [Compound 6] | > 100 | 0.575 | 139.51
FC(F)(F)Oc1ccc(-c2ncccc2N2CCN(c3ccncc3)CC2)cc1 [Compound 25] | 33.1 | 0.871 | 176

Compound | CC50 at 3 days [1] [µM] | EC50 (rgRSV224 virus) [µM] | melting point [°C]
c1cnc(-c2cccc3[nH]ccc23)c(N2CCN(c3ccncc3)CC2)c1 | – | – | 262
Fc1cccc(-c2ncccc2N2CCN(c3ccncc3)CC2)c1 [Compound 12] | > 100 | 0.871 | 184.88
c1cnc(-c2cc3ccccc3s2)c(N2CCN(c3ccncc3)CC2)c1 [Compound 21] | 10.5 | 0.204 | 224
c1cnc(-c2ccc(N3CCCCC3)cc2)c(N2CCN(c3ccncc3)CC2)c1 [Compound 60] | 22.9 | 0.355 | 92
Clc1cccc(-c2ncccc2N2CCN(c3ccncc3)CC2)c1 [Compound 3] | > 100 | 0.55 | –
c1ccc(Cc2nccnc2N2CCN(c3ccncc3)CC2)cc1 [Compound 53] | 75.9 | 3.39 | –
c1cnc(-c2cnc3ccccc3c2)c(N2CCN(c3ccncc3)CC2)c1 [Compound 33] | > 100 | 0.219 | 182
Cn1nccc1-c1ccc(-c2ncccc2N2CCN(c3ccncc3)CC2)cc1 [Compound 67] | 97.7 | 0.407 | –
COc1ccc(C(O)c2ncccc2N2CCN(c3ccncc3)CC2)cc1 (stereo not drawn) [Compound 71] | > 100 | 39.8 | –
N#Cc1ccc(-c2ncccc2N2CCN(c3ccncc3)CC2)cc1 [Compound 28] | > 100 | 0.589 | –
N#CCCn1ccc2cc(-c3ncccc3N3CCN(c4ccncc4)CC3)ccc21 [Compound 51] | 55 | 0.0741 | –
COc1ccc(-c2ncccc2N2CCN(c3ccncc3)CC2)cc1OC [Compound 16] | > 100 | 0.977 | –
COc1ccc(C(O)(c2ccc(OC)cc2)c2ncccc2N2CCN(c3ccncc3)CC2)cc1 [Compound 64] | > 93.3 | 0.0501 | –
Clc1ccc(-c2ncccc2N2CCN(c3ccncc3)CC2)cc1 [Compound 15] | 0.891 | 0.309 | –
COc1ccc(-c2ncccc2N2CCN(c3ccncc3)CC2)cc1 [Compound 5] | > 100 | 0.427 | –
COc1ccc(C(C)(O)c2ncccc2N2CCN(c3ccncc3)CC2)cc1 (stereo not drawn) [Compound 72] | > 100 | 0.525 | –
Cn1cc(-c2ccc(-c3ncccc3N3CCN(c4ccncc4)CC3)cc2)cn1 [Compound 66] | 70.8 | 0.933 | –
OC1(c2ccccc2)CCN(c2ncccc2N2CCN(c3ccncc3)CC2)CC1 [Compound 73] | 63.1 | 0.631 | –
Cn1c(-c2ncccc2N2CCN(c3ccncc3)CC2)cc2ccccc21 [Compound 40] | 53.7 | 0.0251 | –
CC(C)Oc1ccc(-c2ncccc2N2CCN(c3ccncc3)CC2)cn1 [Compound 19] | 19.1 | 0.525 | –
CC1CN(c2cccnc2-c2ccc3ccn(C)c3c2)CCN1c1ccncc1 (stereo not drawn) [Compound 52] | 44.7 | 0.0135 | –
COc1cc(-c2ncccc2N2CCN(c3ccncc3)CC2)ccn1 [Compound 18] | > 97.7 | 0.832 | –
COCCCn1c(-c2ncccc2N2CCN(c3ccncc3)CC2)cc2ccccc21 (as salt: fumarate) | – | – | 168
